# From ChEMBL document CHEMBL5727290, “6-(5-hydroxy-1H-pyrazol-1-yl)nicotinamide inhibitors of PHD” (2019)
# Molecular target: Egl nine homolog 1 (Homo sapiens, UniProt Q9GZT9)
# Assay: Inhibition Assay: The IC50 values for the PHD2 enzyme (residues 181-417) were determined by mixing increasing amounts of inhibitor with a fixed amount of enzyme (5 nM, final concentration) and Biotin labeled peptide (Biotin-Asp-Leu-Glu-Met-Leu-Ala-Pro-Tyr-Ile-Pro-Met-Asp-Asp-Asp-Phe-Gln-Leu, 1 uM final concentration) and 2-Oxyglutarate (2 uM final concentration) in 50 mM HEPES, 50 mM KCl, 0.5 mM TCEP, 2 uM FeCl2, 0.1 mg/ml BSA, at pH 7.3. The reaction was conducted by pre-incubating the enzyme in the presence of inhibitor for 60 min at room temperature. The activity of the free enzyme was measured by adding the peptide, the 2-Oxoglutarate (see above for final concentrations), and Ascorbic Acid (1 mM final concentration). The enzymatic activity was quenched after 60 min by adding an excess of a tight binding inhibitor to the assay mixture. The amount of product released was measured by using a LC/MS system (Agilent HPLC with Applied Biosystems API3000 Mass Spectrometer).
# Egl nine homolog 1, sequence (Q9GZT9 whole entry, the tested form may be a part): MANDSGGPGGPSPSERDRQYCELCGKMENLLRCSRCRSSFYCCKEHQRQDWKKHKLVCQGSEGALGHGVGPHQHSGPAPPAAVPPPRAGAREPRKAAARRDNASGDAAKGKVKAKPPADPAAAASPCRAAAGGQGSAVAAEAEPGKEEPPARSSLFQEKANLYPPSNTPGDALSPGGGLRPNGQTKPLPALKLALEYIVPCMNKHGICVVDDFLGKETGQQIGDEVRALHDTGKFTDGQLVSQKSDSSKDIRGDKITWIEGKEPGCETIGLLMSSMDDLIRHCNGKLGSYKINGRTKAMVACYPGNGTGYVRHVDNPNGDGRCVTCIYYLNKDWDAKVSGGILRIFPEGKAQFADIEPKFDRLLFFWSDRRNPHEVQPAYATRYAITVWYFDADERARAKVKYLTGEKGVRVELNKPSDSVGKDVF
row,Compound,IC50 [nM]
1,CN1CCC(NC(=O)c2ccc(-n3ncc(-c4ccc(C#N)cc4)c3O)nc2)CC1=O (stereo unspecified),129
2,COc1cc(C#N)ccc1-c1cnn(-c2ccc(C(=O)NCCC3CCCO3)cn2)c1O (stereo unspecified),66.1
3,CC(C)(C)NC(=O)c1ccc(-n2ncc(-c3cccnc3)c2O)nc1,10
4,COCCNC(=O)c1cnc(-n2ncc(-c3ccc(C#N)cc3)c2O)cc1C,97.7
5,CCN1CCC(NC(=O)c2ccc(-n3ncc(-c4ccnc(OC)c4)c3O)nc2)CC1,77.6
6,COc1cc(-c2cnn(-c3ccc(C(=O)NCCCn4ccnc4)cn3)c2O)ccn1,37.2
7,CCN1CCC(CN(C)C(=O)c2ccc(-n3ncc(-c4ccc(C#N)cc4)c3O)nc2)C1 (stereo unspecified),56.2

# Now from value to compound:
row,IC50 [nM],Compound
1,51.3,COc1cc(-c2cnn(-c3ccc(C(=O)NCCCN4CCCC4=O)cn3)c2O)ccn1
2,97.7,COc1cc(-c2cnn(-c3ccc(C(=O)NCCCN4CCCC4)cn3)c2O)ccn1
3,126,COc1cc(-c2cnn(-c3ccc(C(=O)NCCC4CCCN4C)cn3)c2O)ccn1 (stereo unspecified)
4,87.1,COc1cc(-c2cnn(-c3ccc(C(=O)NCCCN4CCCCC4)cn3)c2O)ccn1
